# Experimental data reported in patent US11607383B2, “Conductive polymer microneedle arrays for electronically-controlled drug release” (University of Washington, priority 2019, dated 2023).
# What was measured:
# [1] = tested on: BV2 murine microglia; assay type: cell-based; conditions: subdural solution, DC experiment, 3 days incubation
# Protocol: Bioactivity of electrically released drug was tested in an in vitro neuroinflammation model, in which drugs were released into wells of activated BV2 murine microglia. Healthy BV2 cells were seeded in 12-well plates at a density of 100,000 cells/well, in 1.6 mL of Dulbecco's modified eagle media (DMEM, Gibco) with 4.5 g/L D-glucose, 584 mg/L L-glutamine, and 110 mg/L sodium pyruvate (Invitrogen). The DMEM was supplemented with 5% fetal bovine serum (Invitrogen) and 2% anti-mycotic/anti-biotic (Invitrogen). Following seeding, the cells were incubated at 37° C. overnight to allow for settling and adhesion. Cells in activated treatment groups were activated by the replacement of media with fresh DMEM containing 0.005% interferon gamma (Ifn-γ, Invitrogen) and 1% lipopolysaccharide (LPS, ThermoFisher). Unactivated controls received normal fresh DMEM. Cells were then incubated for 1 hour before application of treatment in groups of n=6, in order to simulate realistic conditions in which there is a duration between traumatic SCI occurrence and access to treatment. […]
# Cell viability was measured using an MTS assay (CellTiter 96® AQueous One Solution Cell Proliferation Assay, Promega). […] The incubation was followed by detection of absorbance at 490 nm. The MTS absorbance in each group was normalized to the absorbance of the unactivated group.
# [2] = tested on: activated BV2 murine microglia; assay: In vitro neuroinflammation assay (NO by Griess, cytokines by Luminex); assay type: cell-based; conditions: for NO release normalized to viable cells: DC experiment
# Protocol: Bioactivity of electrically released drug was tested in an in vitro neuroinflammation model, in which drugs were released into wells of activated BV2 murine microglia. Healthy BV2 cells were seeded in 12-well plates at a density of 100,000 cells/well, in 1.6 mL of Dulbecco's modified eagle media (DMEM, Gibco) with 4.5 g/L D-glucose, 584 mg/L L-glutamine, and 110 mg/L sodium pyruvate (Invitrogen). The DMEM was supplemented with 5% fetal bovine serum (Invitrogen) and 2% anti-mycotic/anti-biotic (Invitrogen). Following seeding, the cells were incubated at 37° C. overnight to allow for settling and adhesion. Cells in activated treatment groups were activated by the replacement of media with fresh DMEM containing 0.005% interferon gamma (Ifn-γ, Invitrogen) and 1% lipopolysaccharide (LPS, ThermoFisher). Unactivated controls received normal fresh DMEM. Cells were then incubated for 1 hour before application of treatment in groups of n=6, in order to simulate realistic conditions in which there is a duration between traumatic SCI occurrence and access to treatment.
# Treatment was applied transdurally from microneedles into the cell media though the transdural insert model as previously described in the In Vitro Transdural Release section. Diagrams of experimental conditions can be found in FIGS. 5A-5G. Microneedles were similarly applied manually, then underwent a potentiostatic or cyclic electrical stimulation. Direct current potential was applied for only 2 minutes to minimize electrical imbalance applied to the cells, while delivering sufficient drug to achieve therapeutic effect. Cyclic voltammetry was applied for 15 cycles, equating to 10 minutes. Epidural drug solution controls were similarly applied to the neuroinflammation model by pipetting over the transdural insert. In addition, a subdural solution control was introduced to the neuroinflammation studies in which the Dexa solution is applied directly to the cell media, bypassing the transdural insert.
# Following 3 days of incubation, cell media was assayed for markers of inflammation. Free radical nitric oxide (NO) was quantified using a Griess reagent kit (Invitrogen) that detects NO reduced to nitrites in cell medias. Colorimetric NO quantification was performed following the protocols provided in the Griess reagent kit. Pro-inflammatory cytokines were quantified using a Luminex Magpix Multiplexing assay (Millipore). Cytokines quantified include interleukin-1-beta (IL-1β), interleukin-6 (IL-6), and tumor necrosis factor alpha (TNF-α). Cells treated in the CV stimulated experiment were additionally quantified for the release of monocyte chemoattractant protein 1 (MCP-1). The Luminex multiplexing assays were performed following the protocol provided in the kit.
# [3] = epidural solution, CV experiment
smiles,measurement,setting,value
"C[C@@H]1C[C@H]2[C@@H]3CCC4=CC(=O)C=C[C@]4(C)[C@@]3(F)[C@@H](O)C[C@]2(C)[C@@]1(O)C(=O)COP(=O)(O)O [Dexa solution, dexamethasone phosphate]",relative cell viability (MTS),[1],"slight decreases in viability, though not significant"
same,MCP-1 release normalized for viable cells,[2]; [3],did not see the same decrease
same,NO release normalized for viable cells,[2]; [3],did not see similar reductions in NO release
same,NO release normalized to viable cells,[2]; epidural solution,did not demonstrate the same decrease
same,NO release normalized to viable cells,[2]; subdural solution,significant decrease
